These results are taken from patent publication US20080248487A1, “MODULATION OF PROTEIN FUNCTIONALITIES” (priority 2007, published 2008).

The test deals with T1, p38 MAP kinase (Homo sapiens, UniProt Q16539).
T1 construct: made in house; host or cells: E. coli
T1 sequence (Q16539 whole entry): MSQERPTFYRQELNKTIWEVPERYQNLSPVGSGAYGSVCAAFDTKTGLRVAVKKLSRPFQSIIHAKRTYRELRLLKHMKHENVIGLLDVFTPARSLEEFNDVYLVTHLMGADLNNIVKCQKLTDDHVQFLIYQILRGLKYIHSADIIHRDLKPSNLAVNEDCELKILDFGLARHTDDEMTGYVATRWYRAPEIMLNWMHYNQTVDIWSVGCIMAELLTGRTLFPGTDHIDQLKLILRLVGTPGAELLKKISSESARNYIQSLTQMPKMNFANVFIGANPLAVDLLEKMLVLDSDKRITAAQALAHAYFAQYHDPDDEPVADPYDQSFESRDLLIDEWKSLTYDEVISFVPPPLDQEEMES
Nature of the test: P38 MAP kinase binding assay (competition with fluorescent probe SKF 86002). The conditions noted are these: time-dependent if the IC50 values decrease with the reaction time (more than two-fold in four hours). The method, then: Thus, the ability of a small molecule to block fluoroprobe binding provides an experimental readout of binding to the switch control pocket. […] The reaction was initiated by addition of the enzyme. […] By comparison of rfu (relative fluorescence unit) values with that of a control (in the absence of small molecule modulators), the percentage of inhibition at each concentration of the small molecules were calculated. IC50 values for the small molecule modulators were calculated from the % inhibition values obtained at a range of concentrations of the small molecule modulators using Prism. When time-dependent inhibition was assessed, the plate was read at multiple reaction times such as 0.5, 1, 2, 3, 4 and 6 hours. The IC50 values were calculated at each time point. An inhibition was assigned as time-dependent if the IC50 values decrease with the reaction time (more than two-fold in four hours).
For the molecule `CC1(C(=O)O)CC2(C)CC(C)(C1)C(=O)N(Cc1cccc(-n3nc(C(C)(C)C)cc3NC(=O)Nc3cccc4ccccc34)c1)C2=O` (stereo not shown) [Example 11], the Time-dependent result is “No”.

Consider `CC1(C(=O)O)CC2(C)CC(C)(C1)C(=O)N(Cc1cccc(-n3nc(C(C)(C)C)cc3NC(=O)Nc3ccc(Cl)cc3)c1)C2=O` (stereo not shown) [Example 12], for which the Time-dependent result is reported as “No”.

As for `CC(C)(C)c1cc(NC(=O)Nc2cccc3ccccc23)n(-c2cccc(CC(=O)N3CCOCC3)c2)n1` [Example 21, 1-{3-tert-butyl-1-[3-(2-morpholino-2-oxoethyl)phenyl]-1H-pyrazol-5-yl}-3-(naphthalene-1-yl)urea], the Time-dependent result is recorded as “Yes”.

Regarding `CC(C)(C)c1cc(NC(=O)Nc2cccc3ccccc23)n(-c2ccc(CN)cc2)n1` [Example 45, 1-{3-tert-butyl-1-[4-(aminomethyl)phenyl]-1H-pyrazol-5-yl}-3-(naphthalen-1-yl)urea], the Time-dependent entry is “No”.
